Data taken from patent US8729097B2, “Quinoline compounds as inhibitors of angiogenesis, human methionine aminopeptidase, and SIRT1, and methods of treating disorders” (The Johns Hopkins University, priority 2008, dated 2014).

What was measured:
[1] = test system: breast cancer cells as well as human umbilical vein endothelial cells (HUVECs); assay: Cell proliferation assay, breast cancer cells and HUVECs; format: cell-based
Method: Cell proliferation assay was performed using several different kinds of breast cancer cells as well as human umbilical vein endothelial cells (HUVECs). […].
HCC1954 cells were grown in RPMI1640 containing 10% FBS. HUVEC were grown using the EGM-2 bullet kit (Cambrex) as per manufacturer's instructions. The cells were maintained in a humidified incubator adjusted to 5% CO2. For drug screening, 10 mM stock solutions of Johns Hopkins Drug Library were arrayed in 96-well plates and screened at a final concentration of 10 μM. The cell growth was determined using a [^3H]-thymidine incorporation assay. Cells (typically 5,000 cells/well) were seeded in 96-well plates containing 0.2 ml of growth media and allowed to adhere for 24 h. The cells were then treated with drugs for 24 h. Cells were pulsed with 1 μCi [^3H]-thymidine (MP Biomedicals, 6.7 Ci mmol^−1) for 8 h and harvested, upon trypsin treatment, onto glass fiber filters (Wallac, Turku, Finland), from which ^3H counts were determined using a Perkin Elmer MicroBeta plate reader.

[2] = test system: Saccharomyces cerevisiae strain BY4743; assay: Yeast growth assay (wild type, map1Δ, map2Δ); format: cell-based; details: drug on paper disc
Text: Saccharomyces cerevisiae strain BY4743 (MATa/α his3Δ1/his3Δ1 leu2Δ0/leu2Δ0 lys2Δ0/LYS2) and its isogenic haploid derivatives for MetAP1 (map1Δ) and MetAP2 (map2Δ) deletion mutants were used for yeast growth assays. Drugs dissolved in DMSO were spotted onto sterile filter disks and dried before experiments. Exponentially growing yeast strains were mixed with top agar and plated on YPD (1% yeast extract/2% peptone/2% glucose) plates. The filter disks were then placed on the YPD plates containing yeasts and the incubation was continued for 48 h at 30° C.

[3] = test system: N-terminal methionine processing of 14-3-3γ by hMetAP2; assay: N-terminal methionine processing of 14-3-3γ in HUVEC (Western blot); format: cell-based, human; details: 10 nM
Method: 14-3-3γ is known as a substrate of eukaryotic MetAPs and the inhibition of either isotype of MetAPs was reported to increase the N-terminal methionyl form of the protein.
Cells were lysed by adding 1 volume of 2× Laemmli buffer and were then boiled for 5 min. The samples were separated by SDS-PAGE and transferred to nitrocellulose membrane (Bio-Rad).

[4] = test system: p53 and Rb pathways in HUVECs; assay: Western blot of p53, p21 and Rb in HUVEC; format: cell-based, human
Method: Cells were lysed by adding 1 volume of 2× Laemmli buffer and were then boiled for 5 min. The samples were separated by SDS-PAGE and transferred to nitrocellulose membrane (Bio-Rad). Proteins were detected using primary antibodies for p53 (Santa Cruz), met-14-3-3γ (Novus), p21 (Santa Cruz), Rb (Santa Cruz), MetAP2 (Hu, X. et al (2006) Proc. Natl. Acad. Sci. U.S.A. 103, 18148-18153), SirT1 (Santa Cruz), acetyl-p53-K382 (Abeam), acetyl-tubulin (Sigma), histone-H3 (Santa Cruz), acetyl-H3 (Santa Cruz) and α-tubulin (TU-02, Santa Cruz) followed by the incubation with horseradish peroxidase (HRP)-conjugated anti-mouse or anti-rabbit antibodies (Santa Cruz) and enhanced chemiluminescence (ECL, Amersham).

HUVEC [5] = assay: Senescence associated-β-galactosidase (SA-β-gal) staining in HUVEC; format: cell-based, human
Method: Cells in 6-well plates were washed with PBS and fixed with 3% paraformaldehyde. After washing with PBS, the cells were incubated for 24 h at 37° C. (without CO2, protected from light) in freshly prepared SA-β-gal staining solution containing 1 mg/ml 5-bromo-4-chloro-3-indolyl β-D-galactopyranoside (X-gal), 5 mM potassium ferrocyanide, 5 mM potassium ferricyanide, 150 mM NaCl, 2 mM MgCl2 and 40 mM citric acid, titrated with NaH2PO4 to pH 6.0. SA-β-gal solution was then removed and the cells were washed with PBS. The stained cells were observed under a microscope.

HUVEC [6] = assay: Endothelial cell tube formation assay; format: cell-based, human; details: Matrigel; EX527 1 μM, TNP470 10 nM
Method: HUVEC were seeded on a 96-well plate (2×10^4 cells/well) coated with Matrigel. The cells were then incubated for 16˜18 h in a humidified 5% CO2 incubator at 37° C. The cells were washed carefully with PBS once and Calcein-AM solution in PBS was then added to a final concentration of 2 μM. After incubation for an additional 30 min, the cells were washed carefully with PBS and observed under a fluorescence microscope (485 nm excitation/520 nm emission). The tube formed was quantified using AngioQuant v1.33 (The MathWorks).

CO[C@@H]1[C@H](OC(=O)NC(=O)CCl)CC[C@]2(CO2)[C@H]1[C@@]1(C)O[C@@H]1CC=C(C)C [TNP-470]
endothelial selectivity over other types of cancer cell lines [1]: around 1,000 fold | growth of MetAP-1 deletion mutant (map1Δ) ([2]; map1Δ): significantly inhibited | growth of MetAP-2 deletion mutant ([2]; map2Δ): did not affect the growth | growth of wild-type yeast ([2]; wild type): did not inhibit the yeast growth | processing of 14-3-3γ by hMetAP2 [3]: completely blocked | Rb hyperphosphorylation ([4]; 8% SDS-PAGE): inhibited its hyperphosphorylation | total amount of Rb protein ([4]; 12% SDS-PAGE): increased the total amount of Rb protein | premature senescence in HUVEC (HUVEC [5]; 72 h, valproic acid 0.1 mM, TNP-470 20 nM): did not induce premature senescence | premature senescence in HUVEC (HUVEC [5]; 5 days, single compound or drug combination): did not | HUVEC tube formation (HUVEC [6]): did not inhibit tube formation
